Data taken from US7850984B2, “Protection of the female reproductive system from natural and artificial insults” (The General Hospital Corporation, priority 2000, dated 2010).
“Also recorded” adds a separate entry of the source.

What was measured:
[1] = system: ovaries (oocyte-containing follicles); experiment: S1P protection against radiation in vivo, histomorphometric count of non-atretic oocyte-containing follicles; parameters: species or system mouse
Procedure: The serial sections from each ovary are aligned in order on glass microscope slides, stained with hematoxylin/picric methyl blue, and analyzed for the number of healthy (non-atretic) oocyte-containing primordial, primary and small preantral follicles as described by Perez et al. Nat. Genet.
Young adult (postpartum day 40) wild-type female mice are anesthetized, and dorsal incisions are made to retrieve and expose the ovaries. Five μl of vehicle (PET) are injected into the bursa of one ovary of the pair while 5 μl of a stock of either 0.5 or 2 mM S1P, prepared in PET, are injected into the bursa of the contralateral ovary. Based on an estimated bursal cavity volume of 50 μl, the final concentrations of S1P in the bursal cavity for ovarian exposure following administration of the 0.5 and 2 mM stocks are approximately 50 and 200 μM, respectively. The ovaries are returned to the peritoneal cavity, the incisions are sutured, and the mice are allowed to recover for a 2 hour pretreatment period prior to a single exposure to 0.1 Gy of abdominally-directed ionizing radiation.

C57BL/6J female mice = experiment: Mating trials of irradiated female mice; format: in vivo, mouse
Procedure: Eight-week old C57BL/6J female mice (Jackson Laboratories) are anesthetized by intraperitoneal injection of Avertin (30 μl of a 1.25% stock solution per gram of body weight; Aldrich Chemical Co.), and dorsal incisions are made to retrieve and expose the ovaries. Five μl of vehicle (5% polyethylene glycol, 2.5% ethanol, and 0.8% Tween-80, or PET) or of a stock of 2 mM S1P (BIOMOL) prepared in PET are injected into the bursa surrounding each ovary (see Example 10). Based on an estimated bursal cavity volume of 50 μl, the final concentration of S1P following this procedure is 200 μM. The ovaries are returned to the peritoneal cavity, the incisions are sutured, and the mice are allowed to recover for a 2-h pre-treatment period. Mice are then given a single dose of 0.05 or 0.1 Gy of abdominally directed ionizing radiation, using a cesium^137 source (Shepherd Mar-I, Model 68) at a dose rate of 0.7 Gy min^−1.
To evaluate whether the acute protection of oocytes by S1P also results in long-term preservation of ovarian function and fertility, mating trials are initiated 2 months after irradiation. For these studies, 8-week old C57BL/6J female mice are given intrabursal injections of vehicle or a maximally effective dose of S1P (0.2 mM final concentration in the bursal cavity) two hours before exposure to 0.1 Gy of ionizing radiation, delivered as a single dose. […] Females, irradiated without or with S1P pre-treatment, are then mated with non-irradiated C57BL/6J males beginning 2 months post-irradiation. The F0 females are caged with adult (2-4 month old) wild type C57BL/6J males for 15 d. As a control to assure the fertility of the males, each is mated to a female of proven fertility. After delivery, pups of first time mothers are fostered while pups of subsequent litters are maintained with their natural mothers. […] The F0 female mice are bred again with a new wild type male two weeks after the pups are weaned, and the process is repeated for a total of 4 matings.
It is next examined whether preservation of ovarian function and fertility might result in propagation of genomic damage to the F2 progeny. To generate F2 offspring, F1 males and females are each bred at 2 months of age with adult (2-4 month old) wild type C57BL/6J females or males, respectively (see FIG. 6 for details).

F1 and F2 mice = experiment: Necropsy, histology and hematology of F1 and F2 offspring; format: in vivo; details: for HCT / HGB, Hemoglobin / MCH, Mean Corpuscular Hemoglobin / MCHC, Mean Corpuscular Hemoglobin Content / MCV, Mean Corpuscular Volume / RBC, Red Blood Cell Count / WBC, Total White Blood Cell Count: 0.1 Gy + S1P, mean, 95% confidence limit; for Pathology, gross necropsy / Pathology, histology: offspring of 0.1 Gy + S1P mothers
Procedure: When the F1 animals reach 18-20 months of age and the F2 animals reach 12-16 months of age, all mice are euthanized and subjected to gross necropsy and biochemical analysis. Organs from a subgroup of 65 randomly selected animals in the two different generations are also subjected to complete histologic analysis.
Eighteen to 20 month-old F1 mice, and 12-16 month-old F2 mice, are euthanized and gross pathology is assessed immediately upon death. In a total of 484 mice, the heart, lung, stomach, small and large intestine, liver, salivary gland, kidney, urinary bladder, brain, cervical spinal cord, muscle, bone, bone marrow, skin, pituitary, thyroid, pancreas, adrenal, lymph node, spleen, thymus, testis (males), seminal vesicle (males), prostate (males), ovary (females), and uterus (females) are evaluated. Any organ showing gross abnormalities is fixed with 10% paraformaldehyde, encased in paraffin, and stained with hematoxylin and eosin for in-depth histologic analysis. Furthermore, histology on all organs is performed on 65 randomly selected mice of different generations (F1 or F2), different genders, and different experimental treatments. From an additional 28 randomly-selected mice, blood is collected by cardiac puncture for hematologic analysis, and in 9 animals full differential counts are performed. Differential white cell counts are also performed in all mice displaying a pathological phenotype.

F0 oocytes = experiment: DNA damage in F0 oocytes scored at diakinesis/metaphase I; format: in vivo, mouse
[2] = system: ovaries (oocyte-containing follicles); details: Morita et al., Nat. Med. 6 (2000); cited from earlier work
[3] = N=189, numbers in parenthesis = animals

In the case of CCCCCCCCCCCCC/C=C/[C@@H](O)[C@@H](N)COP(=O)(O)O [S1P, sphingosine-1-phosphate], the “preservation of the germ cell reserve” value ([1]; S1P approx. 50 and 200 μM intrabursal, two hours before 0.1 Gy, ovaries two weeks later) is reported as “significant and dose-dependent preservation of the germ cell reserve”, the “side effects on the ovaries” value ([1]; general statement) is reported as “safe and without side effects on the ovaries” and the “protection of follicle populations after irradiation” value ([1]; highest dose of S1P (200 μM in bursal cavity), two hours before 0.1 Gy, two weeks post-irradiation) is reported as “complete protection of the quiescent (primordial) and growing (primary, preantral) follicle populations; also recorded: retain a completely normal distribution of oocyte-containing follicles at all stages of development; also recorded: indistinguishable from non-irradiated controls; also recorded: Complete protection of the female germline from radiation-induced death”. For the same compound, the “number of follicles at any stage of development versus vehicle-treated ovaries” value ([1]; in the absence of irradiation, intrabursal S1P) was “does not significantly differ”, the “irradiated females remaining fertile after one year” value (C57BL/6J female mice; 200 μM S1P before 0.1 Gy, fourth mating trial, P<0.001 vs. vehicle-treated irradiated females) was 75% and the “irradiated females delivering litters, first mating trial” value (C57BL/6J female mice; 200 μM S1P before 0.1 Gy, mating 2 months post-irradiation, n=8) was “all”. The litter size (C57BL/6J female mice; S1P-treated irradiated group (0.1 Gy), average) was 6.1±0.4 pups per mating, the “frequency of rejection of pups by irradiated mothers” value (C57BL/6J female mice; mothers treated or not with S1P) was “no increase in the frequency of rejection of pups” and the “phenotypic or behavioral abnormalities in F2 offspring” value (C57BL/6J female mice; second generation) was “no gross phenotypic or behavioral abnormalities”. For the same compound, the “phenotypic or behavioral abnormalities in F1 offspring” value (C57BL/6J female mice; up to 18 months of age) was “No phenotypic or behavioral abnormalities”, the HCT (F1 and F2 mice; first group (N=69)) was 45.4 and the “HGB, Hemoglobin” value (F1 and F2 mice; first group (N=69)) was 14.2 g/dL. For the same compound, the “MCH, Mean Corpuscular Hemoglobin” value (F1 and F2 mice; first group (N=69)) was 15.3 pg, the “MCHC, Mean Corpuscular Hemoglobin Content” value (F1 and F2 mice; first group (N=69)) was 31.4 g/dL and the “MCV, Mean Corpuscular Volume” value (F1 and F2 mice; first group (N=69)) was 49.1 fL. For the same compound, the “RBC, Red Blood Cell Count” value (F1 and F2 mice; first group (N=69)) was 9.3e+12 L⁻¹, the “WBC, Total White Blood Cell Count” value (F1 and F2 mice; first group (N=69)) was 1.09e+10 L⁻¹ and the HCT (F1 and F2 mice; second group (N=189)) was 46.3. For the same compound, the “HGB, Hemoglobin” value (F1 and F2 mice; second group (N=189)) was 14.9 g/dL, the “MCH, Mean Corpuscular Hemoglobin” value (F1 and F2 mice; second group (N=189)) was 15.9 pg and the “MCHC, Mean Corpuscular Hemoglobin Content” value (F1 and F2 mice; second group (N=189)) was 30.8 g/dL. For the same compound, the “MCV, Mean Corpuscular Volume” value (F1 and F2 mice; second group (N=189)) was 49.2 fL, the “RBC, Red Blood Cell Count” value (F1 and F2 mice; second group (N=189)) was 9.4e+12 L⁻¹ and the “WBC, Total White Blood Cell Count” value (F1 and F2 mice; second group (N=189)) was 1.1e+10 L⁻¹. For the same compound, the “gross histologic or biochemical abnormalities in offspring” value (F1 and F2 mice; F1 at 18-20 months, F2 at 12-16 months) was “No gross histologic or biochemical abnormalities”, the “Pathology, gross necropsy” value (F1 and F2 mice; N=69) was “Enlarged uterus; also recorded: Perineal tumor” and the “Pathology, histology” value (F1 and F2 mice; N=69, numbers in parenthesis = animals) was “LI in liver (2); also recorded: LI in lung (3); also recorded: Mucometra; also recorded: Lipoma”. The “Pathology, gross necropsy” value (F1 and F2 mice; [3]) was “Dermatitis (3); also recorded: Cyst in right ovary; also recorded: Alopecia; also recorded: Traumatic injury”, the “Pathology, histology” value (F1 and F2 mice; [3]) was “LI in lung (7); also recorded: Liver (3); also recorded: Kidney; also recorded: Ovarian cyst” and the “Oocytes with Breaks/Crosstalk (% of total)” value (F0 oocytes; 0.05 Gy + S1P) was 16.4%. For the same compound, the “Average Oocytes/o (mean ± SEM)” value (F0 oocytes; 0.05 Gy + S1P (200 μM intrabursal), 8 weeks after irradiation, n=8) was 30.8 ± 3.9, the “Oocytes with Breaks/Crosstalk, number” value (F0 oocytes; 0.05 Gy + S1P, of 110 total scorable oocytes) was 18 and the “Oocytes with Breaks/Crosstalk (% of total)” value (F0 oocytes; 0.1 Gy + S1P) was 27.6%. The “Oocytes with Breaks/Crosstalk, number” value (F0 oocytes; 0.1 Gy + S1P, of 86 total scorable oocytes) was 24, the “percentage of oocyte population manifesting DNA damage versus vehicle-treated irradiated mice” value (F0 oocytes; S1P-treated irradiated females) was “no increase in the percentage of the oocyte population manifesting DNA damage” and the “protection of oocyte population from apoptotic death following radiotherapy” value [2] was “essentially protects the entire oocyte population from apoptotic death”.
